Test results published in patent US5951981A, “Thrombolytic agents with antithrombotic activity” (Diatide, Inc., priority 1996, dated 1999).

Test system: human platelets in platelet-rich plasma (PRP)
Experiment: Platelet aggregation inhibition assay (ADP-induced, aggregometer)
Assay type: cell-based
Settings: fresh human PRP, 250,000 platelets/μL; aggregation induced with 20 micromolar ADP at 37° C.; inhibitor added about 1 min before ADP; read-out: IC50 (concentration of inhibitor that reduced the extent of platelet aggregation by 50%)
Procedure: Platelet aggregation studies were performed essentially as described by Zucker (1989, Methods in Enzymol. 169: 117-133). Briefly, platelet aggregation was assayed with or without putative platelet aggregation inhibitory compounds using fresh human platelet-rich plasma (PRP), comprising 250,000 platelets per microlitre. Whole human blood (36 mL) were freshly drawn from volunteers who were medication-free for at least 2 weeks prior to blood draw. Blood was drawn into 4 mL of a 0.1M sodium citrate solution and centrifuged (150 g for 20 min at 22° C.) to pellet red blood cells. The supernatant, comprising PRP, was removed and the remaining blood recentrifuged at 8000 g for 10 min to produce platelet-poor plasma (PPP; used to dilute the PRP to a final concentration of 250,000 platelets/μL). Alternatively, PPP was prepared by centrifugation of PRP for 1 min in a tabletop microcentrifuge. PPP is also used as a negative control for platelet aggregation.
Platelet aggregation was induced by the addition at 37° C. of a solution of adenosine diphosphate to a final concentration of 20 micromolar, and the extent of platelet aggregation monitored using a four channel aggregometer (Model IV Plus, Helena Laboratories, Beaumont, Tex.). […] Inhibition curves for a variety of disintegrins comprising the peptide sequence RGD was determined for each batch of platelets tested as positive controls.

Q: Which IC50 does the source give for “CH2 CO-YD .Amp.GDCKGCG.amide [P734 peptide]” here?
A: 0.067 µM
